Results from patent US20240327401A1, “FUSED RING COMPOUND, PHARMACEUTICAL COMPOSITION, AND APPLICATION THEREOF” (EVOPOINT BIOSCIENCES CO., LTD., priority 2021, published 2024).

Tests used:
[1] = target: T1, SOS1/KRAS G12C protein binding (Homo sapiens, UniProt Q07889); experiment: Inhibition of SOS1/KRAS G12C protein binding (665 nm/615 nm ratio); conditions: 15 nM KRAS G12C (aa 1-169), 2.5 nM His-SOS1 (aa 564-1049); nonlinear regression
T1 construct: His-SOS1 (aa 564-1049) protein; purchased Pharmaron Beijing Co., Ltd. 20200717 (His-SOS1); 20200707 (KRAS G12C)
T1 sequence (Q07889 564-1049): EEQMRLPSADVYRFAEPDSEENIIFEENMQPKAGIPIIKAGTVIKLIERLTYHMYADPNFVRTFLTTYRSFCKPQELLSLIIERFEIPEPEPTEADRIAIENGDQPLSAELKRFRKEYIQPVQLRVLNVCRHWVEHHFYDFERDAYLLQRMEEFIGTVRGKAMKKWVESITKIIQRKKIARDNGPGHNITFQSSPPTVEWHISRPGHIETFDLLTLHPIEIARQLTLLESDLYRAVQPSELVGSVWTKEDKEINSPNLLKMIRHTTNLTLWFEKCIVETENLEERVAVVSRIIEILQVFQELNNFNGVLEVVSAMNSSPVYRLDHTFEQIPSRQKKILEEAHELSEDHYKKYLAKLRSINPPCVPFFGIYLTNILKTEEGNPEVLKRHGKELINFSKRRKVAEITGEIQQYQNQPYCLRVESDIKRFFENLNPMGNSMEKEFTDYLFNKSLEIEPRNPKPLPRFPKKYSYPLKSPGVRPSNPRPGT
Experimental: Efficacy Example 2: Evaluation of Inhibition of SOS1/KRAS G12C Protein Binding
A test compound was dissolved in 100% DMSO to give a solution at a concentration of 10 mM. 10 μL of the solution was taken and 3-fold diluted with 100% DMSO to prepare test compound solutions with concentrations of 10000 nM to […], for a total of 11 concentrations. The compound solutions at different concentrations were then transferred to a 384-well plate at 0.1 μL/well using a sonic droplet device Echo (Labcyte), and 2 replicate wells were set for each concentration.
A 15 nM KRAS G12C (aa 1-169) protein (Pharmaron Beijing Co., Ltd., 20200707) was transferred to the 384-well reaction plate at 5 μL/well using the sonic droplet device Echo (Labcyte), and then the reaction plate was centrifuged in a centrifuge (Eppendorf, 5810R) at 1000 rpm/min for 1 min.
A 2.5 nM His-SOS1 (aa 564-1049) protein (Pharmaron Beijing Co., Ltd., 20200717) was transferred to the 384-well reaction plate at 5 μL/well using the sonic droplet device Echo (Labcyte), and then the reaction plate was centrifuged in a centrifuge (Eppendorf, 5810R) at 1000 rpm/min for 1 min and incubated at 25° C. for 15 min.
A mixed solution of Antibody 1 (MAb Anti-6his-Tb cryptate Gold, Cisbio, 61HI2TLA) and Antibody 2 (MAb Anti-GST-XL665, Cisbio, 61GSTXLA) was transferred to the 384-well reaction plate at 10 μL/well using the sonic droplet device Echo (Labcyte), and then the reaction plate was centrifuged in a centrifuge (Eppendorf, 5810R) at 1000 rpm/min for 1 min and incubated at 25° C. for 120 min.
The 665 nm/615 nm optical density ratio was read using an Envision multifunctional microplate reader (Perkin Elmer, Envision 2104).
Analysis of Original Data:
The IC50 values of the compounds were fitted by a nonlinear regression equation of Graphpad Prism 8. The results are shown in Table 2: • Negative control: DMSO
The IC50 (half maximal inhibitory concentration) values of the compounds were calculated using the following non-linear fitting equation:
[formula] • X: Log of cpd concentration • Y: 665 nm/615 nm ratio

[2] = system: ERK phosphorylation in DLD-1 cells; experiment: In-cell Western blot assay for ERK phosphorylation in DLD-1 cells; type: cell-based; conditions: Homo sapiens, p-ERK signal corrected using DMSO and BI-3406, four-parameter fit
Experimental: Efficacy Example 1: In-cell Western Blot Assay for ERK Phosphorylation in DLD-1 Cells
DLD-1 cells (ATCC, CCL-221) were thawed and cultured in a culture medium containing RPMI1640 (Gibco, A10491-01), 10% fetal bovine serum (FBS) (Transgene, FS201-02) and 1% antibiotic P/S (Gibco, 15140-122) for 3 days until the cell viability was good. The cells were inoculated into a 384-well plate and incubated at 37° C. with 5% CO2 overnight. A test compound, a positive control compound, and a negative control were added. The compound was at concentrations of 10000 nM to 1.52 nM (3-fold dilution) and […], for a total of 10 concentrations. The mixture was well mixed and incubated at 37° C. with 5% CO2. The cells were washed twice with PBS (Solarbio, P1010), and then a blocking buffer was added. After 1 h of blocking at room temperature, a primary antibody mixture (phospho-p44/42 MAPK (T202/Y204) Rabbit mAb (CST, […]), GAPDH (D4C6R) Mouse mAb) (CST, 97166S) was added, followed by overnight incubation at 4° C. The cells were washed 3 times with PBST (PBS containing 0.05% Tween-20 (Solarbio, T8220)), and a secondary antibody mixture (goat anti rabbit 800CW (LI-COR, 926-32211), goat anti mouse 680RD (LI-COR, 926-68070)) was added, followed by incubation at room temperature in the dark. The 384-well plate was reversed and centrifuged at 1000 rpm for 1 min, and read on an Odyssey CLx fluorescence imaging system (LI-COR) to obtain fluorescence signal values, which were corrected using DMSO and BI-3406.
[formula] • H=Ave (DMSO) • L=Ave (BI-3406) • SD (H)=STDEV (DMSO) • SD (L)=STDEV (BI-3406)
The IC50 values of the compounds were calculated using a four-parameter fitting algorithm, specifically as follows:
[formula] • X: Log of cpd concentration • Y: Ave (relative pERK) • Top and Bottom: Plateaus in same units as Y • log IC50: same log units as X • HillSlope: Slope factor or Hill slope.

Row | SMILES | IC50 [1] | IC50 [2]
1 | COc1c(=O)n(C2(C(F)F)CC2)cc2c(N[C@H](C)c3cccc(C(F)F)c3F)nc(C)nc12 [SZ-022244] | 0.0178 µM | 0.265 µM
2 | Cc1nc(N[C@H](C)c2cccc(C(F)F)c2F)c2cn(C3(C(F)F)CC3)c(=O)c(N(C)C)c2n1 [SZ-022251] | – | 0.146 µM
3 | [2H]C([2H])([2H])Oc1c(=O)n(C2(C(F)F)CC2)cc2c(N[C@H](C)c3cccc(C(F)F)c3F)nc(C)nc12 [SZ-022295] | 0.00815 µM | 0.256 µM
4 | CCOc1c(=O)n(C2(C(F)F)CC2)cc2c(N[C@H](C)c3cccc(C(F)F)c3F)nc(C)nc12 [SZ-022296] | 0.00943 µM | 0.143 µM
5 | Cc1nc(N[C@H](C)c2cccc(C(F)F)c2F)c2cn(C3(C(F)F)CC3)c(=O)c(OC3CC3)c2n1 [SZ-022299] | 0.0224 µM | 0.751 µM
6 | COc1c(=O)n(C2(C)CC2)cc2c(N[C@H](C)c3cccc(C(F)F)c3F)nc(C)nc12 [SZ-022300] | 0.0121 µM | 0.412 µM
7 | COc1c(=O)n(C2(CF)CC2)cc2c(N[C@H](C)c3cccc(C(F)F)c3F)nc(C)nc12 [SZ-022301] | 0.0065 µM | 0.262 µM
8 | COc1c(=O)n(C2(C(F)F)CC2)cc2c(N[C@H](C)c3cccc(C(F)F)c3C)nc(C)nc12 [SZ-022302] | 0.00379 µM | 0.104 µM
9 | COc1c(=O)n(C2(C(F)F)CC2)cc2c(N[C@H](C)c3cccc(C(C)(F)F)c3F)nc(C)nc12 [SZ-022303] | 0.00977 µM | 0.128 µM
10 | COc1c(=O)n(C2(C(F)F)CC2)cc2c(N[C@H](C)c3cccc(C(F)(F)F)c3C)nc(C)nc12 [SZ-022304] | 0.00698 µM | 0.079 µM
11 | CSc1c(=O)n(C2(C(F)F)CC2)cc2c(N[C@H](C)c3cccc(C(F)F)c3F)nc(C)nc12 [SZ-022306] | 0.0125 µM | 0.213 µM
12 | Cc1nc(N[C@H](C)c2cccc(C(F)F)c2F)c2cn(C3(C(F)F)CC3)c(=O)c(S(C)(=O)=O)c2n1 [SZ-022307] | 0.0259 µM | 0.253 µM
13 | Cc1nc(N[C@H](C)c2cccc(C(F)F)c2F)c2cn(C3(C(F)F)CC3)c(=O)c(OCC(F)(F)F)c2n1 [SZ-022312] | 0.0179 µM | 0.601 µM
14 | Cc1nc(N[C@H](C)c2cccc(C(F)F)c2F)c2cn(C3(C(F)F)CC3)c(=O)c(OC(C)C)c2n1 [SZ-022313] | 0.044 µM | 1.27 µM
15 | Cc1nc(N[C@H](C)c2cccc(C(F)F)c2F)c2cn(C3(C(F)F)CC3)c(=O)c(OCC3CC3)c2n1 [SZ-022314] | 0.0173 µM | 0.563 µM
16 | COc1c(=O)n(C2(C(F)F)CC2)cc2c(N[C@H](C)c3cccc(C(F)(F)C(C)(C)O)c3F)nc(C)nc12 [SZ-022317] | 0.00454 µM | 0.371 µM
17 | COc1c(=O)n(C2(C(F)(F)F)CC2)cc2c(N[C@H](C)c3cccc(C(F)F)c3F)nc(C)nc12 [SZ-022325] | 0.0159 µM | 0.216 µM
18 | COc1c(=O)n(C2CCOCC2)cc2c(N[C@H](C)c3cccc(C(F)F)c3F)nc(C)nc12 [SZ-022326] | 0.0105 µM | –
19 | COc1c(=O)n(C2(C(F)F)CC2)cc2c(N[C@H](C)c3cc(N)cc(C(F)(F)F)c3)nc(C)nc12 [SZ-022327] | 0.00505 µM | 0.153 µM

Row | SMILES | IC50 [1] | IC50 [2]
20 | COc1c(=O)n(C2(C)CCOC2)cc2c(N[C@H](C)c3cccc(C(F)F)c3F)nc(C)nc12 (some centres unmarked) [SZ-022328] | 0.0097 µM | 0.309 µM
21 | COc1c(=O)n(C2(C(F)F)CC2)cc2c(N[C@H](C)c3cccc(C(F)(F)CO)c3F)nc(C)nc12 [SZ-022329] | 0.00263 µM | 0.417 µM
22 | COc1c(=O)n(C2(C(F)F)CC2)cc2c(N[C@H](C)c3cccc4c(F)coc34)nc(C)nc12 [SZ-022330B] | 0.00999 µM | 0.4 µM
23 | COc1c(=O)n(C2(C(F)F)CC2)cc2c(N[C@H](C)c3cccc4c3OCC4(F)F)nc(C)nc12 [SZ-022330] | 0.00502 µM | 0.117 µM
24 | COc1c(=O)n(C2CCN(C(=O)C3CC3)CC2)cc2c(N[C@H](C)c3cccc(C(F)F)c3F)nc(C)nc12 [SZ-022335] | 0.0279 µM | –
25 | COc1c(=O)n(C2CC(F)(F)C2)cc2c(N[C@H](C)c3cccc(C(F)F)c3F)nc(C)nc12 [SZ-022336] | 0.0365 µM | –
26 | CCOc1c(=O)n(C2(C(F)F)CC2)cc2c(N[C@H](C)c3cccc(C(F)F)c3C)nc(C)nc12 [SZ-022337] | 0.00414 µM | 0.174 µM
27 | CCOc1c(=O)n(C2(C(F)F)CC2)cc2c(N[C@H](C)c3cccc(C(C)(F)F)c3F)nc(C)nc12 [SZ-022338] | 0.0121 µM | 0.334 µM
28 | CCOc1c(=O)n(C2(C(F)F)CC2)cc2c(N[C@H](C)c3cccc(C(F)(F)F)c3C)nc(C)nc12 [SZ-022339] | 0.00725 µM | 0.186 µM
29 | CCOc1c(=O)n(C2(C(F)(F)F)CC2)cc2c(N[C@H](C)c3cccc(C(F)(F)F)c3C)nc(C)nc12 [SZ-022340] | 0.0152 µM | 0.367 µM
30 | CCOc1c(=O)n(C2(C)CC2)cc2c(N[C@H](C)c3cccc(C(F)(F)F)c3C)nc(C)nc12 [SZ-022341] | 0.00776 µM | 0.161 µM
31 | CCOc1c(=O)n(C2(CF)CC2)cc2c(N[C@H](C)c3cccc(C(F)(F)F)c3C)nc(C)nc12 [SZ-022342] | 0.00715 µM | 0.057 µM
32 | CCC1(n2cc3c(N[C@H](C)c4cccc(C(F)F)c4F)nc(C)nc3c(OC)c2=O)CC1 [SZ-022343] | 0.0267 µM | –
33 | COc1c(=O)n(C2(C#N)CC2)cc2c(N[C@H](C)c3cccc(C(F)F)c3F)nc(C)nc12 [SZ-022344] | 0.0237 µM | –
34 | COc1c(=O)n(C23CC(C2)C3)cc2c(N[C@H](C)c3cccc(C(F)F)c3F)nc(C)nc12 [SZ-022345] | 0.0218 µM | 0.885 µM
35 | COCC1(n2cc3c(N[C@H](C)c4cccc(C(F)F)c4F)nc(C)nc3c(OC)c2=O)CC1 [SZ-022346] | 0.03 µM | 1.02 µM
36 | COc1c(=O)n(C2(CO)CC2)cc2c(N[C@H](C)c3cccc(C(F)F)c3F)nc(C)nc12 [SZ-022347] | 0.0601 µM | –
37 | COc1c(=O)n(C2(C(F)F)CC2)cc2c(N[C@H](C)c3cccc(C(F)(F)F)c3)nc(C)nc12 [SZ-022348] | 0.0218 µM | 0.614 µM
38 | CCS(=O)(=O)c1c(=O)n(C2(C(F)F)CC2)cc2c(N[C@H](C)c3cccc(C(F)F)c3F)nc(C)nc12 [SZ-022372] | 0.0367 µM | –
